Laboratory results: ChEMBL document CHEMBL1133436 (Bioorg Med Chem Lett, 2000)

How the values were obtained:
[1] = species: Homo sapiens; test: Selectivity for alpha-2a to that of alpha2b determined by their binding affinity ratios
[2] = target: T1, Alpha-2B adrenergic receptor (Homo sapiens, UniProt P18089); test: biochemical; type: cell-based, CHO
T1 sequence (P18089 whole entry): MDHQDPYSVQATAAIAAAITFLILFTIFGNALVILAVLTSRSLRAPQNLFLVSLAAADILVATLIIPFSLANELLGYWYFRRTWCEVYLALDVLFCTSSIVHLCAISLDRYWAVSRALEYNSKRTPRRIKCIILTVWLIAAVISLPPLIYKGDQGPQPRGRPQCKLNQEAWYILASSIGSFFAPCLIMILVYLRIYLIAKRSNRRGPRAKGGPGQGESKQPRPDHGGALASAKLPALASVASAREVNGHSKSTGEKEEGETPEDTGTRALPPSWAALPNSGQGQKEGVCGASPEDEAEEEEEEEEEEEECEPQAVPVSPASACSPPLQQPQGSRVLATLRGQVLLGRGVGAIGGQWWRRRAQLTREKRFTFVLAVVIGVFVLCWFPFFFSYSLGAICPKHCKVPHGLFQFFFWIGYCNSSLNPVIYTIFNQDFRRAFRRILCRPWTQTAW

[3] = target: T2, Alpha-2A adrenergic receptor (Homo sapiens, UniProt P08913); test: Binding affinity against human Alpha-2A adrenergic receptor expressed stably in CHO cells using [3H]rauwolscine as radioligand; type: cell-based
T2 sequence (P08913 whole entry): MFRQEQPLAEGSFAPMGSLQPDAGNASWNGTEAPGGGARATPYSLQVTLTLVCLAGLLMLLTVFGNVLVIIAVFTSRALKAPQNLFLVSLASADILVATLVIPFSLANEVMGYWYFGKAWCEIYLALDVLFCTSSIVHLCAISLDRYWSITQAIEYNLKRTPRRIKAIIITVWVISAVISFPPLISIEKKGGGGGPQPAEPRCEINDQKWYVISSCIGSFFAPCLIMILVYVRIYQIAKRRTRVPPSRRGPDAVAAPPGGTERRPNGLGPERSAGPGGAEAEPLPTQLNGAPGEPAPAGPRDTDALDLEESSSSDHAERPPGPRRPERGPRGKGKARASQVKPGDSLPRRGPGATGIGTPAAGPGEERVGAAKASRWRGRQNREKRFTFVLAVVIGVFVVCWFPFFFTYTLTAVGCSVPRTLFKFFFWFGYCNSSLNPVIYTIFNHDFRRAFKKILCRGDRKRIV

Compound | Selectivity [1] | Ki [2] | Ki [3]
O=C(NCCCCCCCCNC(=O)[C@@H]1[C@H]2C[C@H]3c4[nH]c5ccccc5c4CCN3C[C@@H]2CC[C@@H]1O)[C@@H]1[C@H]2C[C@H]3c4[nH]c5ccccc5c4CCN3C[C@@H]2CC[C@@H]1O | 60.5 | – | –
O=C(NCCCCCCCCCCNC(=O)[C@@H]1[C@H]2C[C@H]3c4[nH]c5ccccc5c4CCN3C[C@@H]2CC[C@@H]1O)[C@@H]1[C@H]2C[C@H]3c4[nH]c5ccccc5c4CCN3C[C@@H]2CC[C@@H]1O | 47.7 | – | –
O=C(NCCCCCCCCCCCCNC(=O)[C@@H]1[C@H]2C[C@H]3c4[nH]c5ccccc5c4CCN3C[C@@H]2CC[C@@H]1O)[C@@H]1[C@H]2C[C@H]3c4[nH]c5ccccc5c4CCN3C[C@@H]2CC[C@@H]1O | 15.7 | 18.5 nM | 1.18 nM
O=C(NCCCCCCCCCNC(=O)[C@@H]1[C@H]2C[C@H]3c4[nH]c5ccccc5c4CCN3C[C@@H]2CC[C@@H]1O)[C@@H]1[C@H]2C[C@H]3c4[nH]c5ccccc5c4CCN3C[C@@H]2CC[C@@H]1O | 35.8 | 44.7 nM | 1.25 nM
